This note sets out measurements from US8076352B2, “Administration of carboline derivatives useful in the treatment of cancer and other diseases” (PTC Therapeutics, Inc., priority 2004, dated 2011).

The structures appear in SMILES notation.

In one test the test system is hypoxia-inducible endogenous VEGF expression in HeLa cells. Nature of the test: Hypoxia-inducible endogenous VEGF expression, VEGF ELISA of conditioned media (dose-response EC50). The format is cell-based. The note with it: HeLa cells, hypoxic conditions (1% O2). The gist of the method:
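Secreted VEGF was quantified by ELISA against a per-assay standard curve after HeLa cells spent 24-48 h in 1% O2, 5% CO2, N2 balance with or without compound. Across a series of, e.g., seven concentrations, percentage inhibition (max 100%, min 0%) gave EC50 and CC50 values.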
A general note: An ELISA detects its analyte on a solid surface through an enzyme-linked reagent.
Take `O=C(Oc1ccc(Cl)cc1)N1CCc2c([nH]c3ccc(Cl)cc23)C1c1ccc(S(=O)(=O)N2CCOCC2)cc1` (stereo not shown) [Compound 450]: the EC50 lay within 8 to 40 nM.
The same measure, in the same setting: for `CN(C)CCCOc1ccc(C2c3[nH]c4ccc(Cl)cc4c3CCN2C(=O)Oc2ccc(Br)cc2)cc1` (stereo not shown) [Compound 468] the value was 8 to 40 nM; for `CN(C)CCCOc1ccc(C2c3[nH]c4ccc(Cl)cc4c3CCN2C(=O)Oc2ccc(Cl)cc2)cc1` (stereo not shown) [Compound 479], 40 to 200 nM.

Still in this test, the particulars now being: Homo sapiens, HeLa cells, hypoxic conditions (1% O2).
On to `CC(C)(C)OC(=O)N[C@@H](Cc1ccccc1)C(=O)Oc1ccc(C2c3[nH]c4ccc(Cl)cc4c3CCN2C(=O)OC(C)(C)C)cc1` (stereo partly shown) [Compound 451], for which the concentration giving a half-maximal response (EC50) fell in the range of 8 to 40 nM.
Same read-out and setting: as for `O=C(Oc1ccc(F)cc1)N1CCc2c([nH]c3ccc(Cl)cc23)C1c1ccc(F)cc1` (stereo not shown) [Compound 452], the figure is 8 to 40 nM; as for `CCOC(=O)N1CCC(NC(=O)c2ccc(C3c4[nH]c5ccc(Cl)cc5c4CCN3C(=O)OCC)cc2)CC1` (stereo not shown) [Compound 453], 8 to 40 nM; as for `O=C(CN1CCOCC1)Nc1ccc(C2c3[nH]c4ccc(Cl)cc4c3CCN2C(=O)Oc2ccc(Cl)cc2)cc1` (stereo not shown) [Compound 454], 8 to 40 nM.
On the same count and under the same terms, as for `COc1ccc(OC(=O)N2CCc3c([nH]c4ccc(Cl)cc34)C2c2ccc(S(=O)(=O)N3CCOCC3)cc2)cc1` (stereo not shown) [Compound 455], the figure is 8 to 40 nM.
Still for that read-out and setting: as for `CN(C)CCCOc1ccc(C2c3[nH]c4ccc(Cl)cc4c3CCN2C(=O)OCCF)cc1` (stereo not shown) [Compound 456], the figure is 8 to 40 nM; as for `Nc1ncc(C2c3[nH]c4ccc(Cl)cc4c3CCN2C(=O)Oc2ccc(Cl)cc2)cn1` (stereo not shown) [Compound 457], 8 to 40 nM.
Compound `CCOC(=O)N1CCc2c([nH]c3ccc(Cl)cc23)C1c1ccc(OCCCN(C)C)cc1` (stereo not shown) [Compound 458] yielded an EC50 of 8 to 40 nM.
As for `CC(C)OC(=O)N1CCc2c([nH]c3ccc(Cl)cc23)C1c1ccc(OCCCN(C)C)cc1` (stereo not shown) [Compound 459], the EC50 fell in the range of 8 to 40 nM.
On the same count and under the same terms, as for `O=C(Oc1ccc(Cl)cc1)N1CCc2c([nH]c3ccc(Cl)cc23)C1c1ccc(OCC2CO2)cc1` (stereo not shown) [Compound 460], the figure is 8 to 40 nM.
The same measure, in the same setting: for `CCOC(=O)N1CCc2c([nH]c3ccc(Cl)cc23)C1c1ccc(C(=O)NCC2COC(C)(C)O2)cc1` (stereo not shown) [Compound 461] the value was 8 to 40 nM; for `O=C(Oc1ccc(Cl)cc1)N1CCc2c([nH]c3ccc(Cl)cc23)C1c1ccc(OCC(O)CN2CCCC2)cc1` (stereo not shown) [Compound 462], 8 to 40 nM; for `CC(=O)Oc1ccc(C2c3[nH]c4ccc(Cl)cc4c3CCN2C(=O)Oc2ccc(Cl)cc2)cc1` (stereo not shown) [Compound 463], 8 to 40 nM.
The same measure, in the same setting: as for `COc1ccc(C2c3[nH]c4ccc(Cl)cc4c3CCN2C(=O)c2ccc(-c3ccccc3)cc2)cc1` (stereo not shown) [Compound 464], the figure is 8 to 40 nM; as for `COCCOc1ccc(C2c3[nH]c4ccc(Cl)cc4c3CCN2C(=O)Oc2ccc(OC)cc2)cc1` (stereo not shown) [Compound 465], 8 to 40 nM; as for `CCOC(=O)N1CCc2c([nH]c3ccc(Br)cc23)C1c1ccc(C(=O)N2CCN(CCO)CC2)cc1` (stereo not shown) [Compound 466], 8 to 40 nM.
With `CCOC(=O)Nc1ccc(C2c3[nH]c4ccc(Cl)cc4c3CCN2C(=O)Oc2ccc(Cl)cc2)cc1` (stereo not shown) [Compound 467], the half-maximal effective concentration (EC50) fell in the range of 8 to 40 nM.
For the compound `CCOC(=O)N1CCc2c([nH]c3ccc(Cl)cc23)C1c1ccc(C(=O)N2CCN(CCOC)CC2)cc1` (stereo not shown) [Compound 469], the EC50 lay within 8 to 40 nM.
Still for that read-out and setting: as for `COCCOC(=O)Nc1ccc(C2c3[nH]c4ccc(Cl)cc4c3CCN2C(=O)Oc2ccc(Cl)cc2)cc1` (stereo not shown) [Compound 470], the figure is 8 to 40 nM; as for `CCOC(=O)N1CCc2c([nH]c3ccc(Cl)cc23)C1CC(C)C` (stereo not shown) [Compound 472], 8 to 40 nM.
With `CCOC(=O)N1CCc2c([nH]c3ccc(Cl)cc23)C1c1ccc(C(=O)N2CCN(CC)CC2)cc1` (stereo not shown) [Compound 473], the EC50 lay in the range of 40 to 200 nM.
Compound `CCOC(=O)N1CCc2c([nH]c3ccc(Br)cc23)C1c1ccc(CN2CCN(C)CC2)cc1` (stereo not shown) [Compound 474] displayed an EC50 of 40 to 200 nM.
On the same count and under the same terms, as for `CN(C)c1ncc(C2c3[nH]c4ccc(Cl)cc4c3CCN2C(=O)Oc2ccc(Cl)cc2)cn1` (stereo not shown) [Compound 475], the figure is 40 to 200 nM; as for `CCOC(=O)N1CCc2c([nH]c3ccc(Cl)cc23)C1c1cnc(N(C)C)nc1` (stereo not shown) [Compound 476], 40 to 200 nM; as for `CC(C)C1NCCc2c1[nH]c1ccc(Cl)cc21` (stereo not shown) [Compound 477], 40 to 200 nM.
In the case of `CCOC(=O)N1CCc2c([nH]c3ccc(Br)cc23)C1c1ccc(C(=O)N2CCN(C)CC2)cc1` (stereo not shown) [Compound 478], the half-maximal effective concentration (EC50) was 40 to 200 nM.
With `CCOC(=O)N1CCc2c([nH]c3ccc(Br)cc23)C1c1ccc(C(=O)NC)cc1` (stereo not shown) [Compound 480], the EC50 lay in the range of 40 to 200 nM.
On the same count and under the same terms, for `CCOC(=O)N1CCc2c([nH]c3ccc(Cl)cc23)C1c1ccc(C(=O)N2CCN(C3CCCCC3)CC2)cc1` (stereo not shown) [Compound 481] the value was 40 to 200 nM; for `CC(C)C(=O)Nc1ccc(C2c3[nH]c4ccc(Cl)cc4c3CCN2C(=O)Oc2ccc(Cl)cc2)cc1` (stereo not shown) [Compound 482], 40 to 200 nM.
On the same count and under the same terms, as for `CCOC(=O)N1CCc2c([nH]c3ccc(Br)cc23)C1c1ccc(C(=O)N(C)C)cc1` (stereo not shown) [Compound 483], the figure is 40 to 200 nM; as for `CCOC(=O)N1CCc2c([nH]c3ccc(Br)cc23)C1c1ccc(C(=O)N2CCCN(C)CC2)cc1` (stereo not shown) [Compound 484], 40 to 200 nM.
Same read-out and setting: for `COC(=O)C(=O)N1CCc2c([nH]c3ccc(Cl)cc23)C1c1ccc(OC)cc1` (stereo not shown) [Compound 485] the value was 40 to 200 nM; for `CCOC(=O)N1CCc2c([nH]c3ccc(Cl)cc23)C1CC(C)(C)C` (stereo not shown) [Compound 486], 40 to 200 nM; for `CCOC(=O)N1CCc2c([nH]c3ccc(Cl)cc23)C1c1ccc(S(=O)(=O)N2CCOCC2)cc1` (stereo not shown) [Compound 487], 40 to 200 nM.
`CCOC(=O)N1CCc2c([nH]c3ccc(Br)cc23)C1c1ccc(C(=O)NCCN2CCOCC2)cc1` (stereo not shown) [Compound 488]: the concentration for a half-maximal effect (EC50) is 40 to 200 nM.
Same read-out and setting: as for `CC(C)OC(=O)Nc1ccc(C2c3[nH]c4ccc(Cl)cc4c3CCN2C(=O)Oc2ccc(Cl)cc2)cc1` (stereo not shown) [Compound 489], the figure is 40 to 200 nM; as for `CCOC(=O)N1CCc2c([nH]c3ccc(Br)cc23)C1c1ccc(C(=O)NCCO)cc1` (stereo not shown) [Compound 490], 40 to 200 nM; as for `CN(C)CC(=O)Nc1ccc(C2c3[nH]c4ccc(Cl)cc4c3CCN2C(=O)Oc2ccc(Cl)cc2)cc1` (stereo not shown) [Compound 491], 40 to 200 nM.
The same measure, in the same setting: for `CCOC(=O)N1CCc2c([nH]c3ccc(Cl)cc23)C1c1ccc(C(=O)N2CCOCC2)cc1` (stereo not shown) [Compound 492] the value was 40 to 200 nM.
As to `CN(C)CCCOc1ccc(C2c3[nH]c4ccc(Cl)cc4c3CCN2C(=O)Oc2ccccc2)cc1` (stereo not shown) [Compound 493], the EC50 was 40 to 200 nM.
On the same count and under the same terms, for `CCOC(=O)N1CCc2c([nH]c3ccc(Cl)cc23)C1c1ccc(C(=O)NCC2CCCO2)cc1` (stereo not shown) [Compound 494] the value was 40 to 200 nM; for `CCOC(=O)N1CCc2c([nH]c3ccc(Br)cc23)C1c1cnc(NC)nc1` (stereo not shown) [Compound 496], 40 to 200 nM; for `CSCCC1NCCc2c1[nH]c1ccc(Cl)cc21` (stereo not shown) [Compound 497], 40 to 200 nM.
The compound `CCOC(=O)N1CCc2c([nH]c3ccc(Cl)cc23)C1c1ccc(C(=O)N2CCN(C)CC2)cc1` (stereo not shown) [Compound 498] yielded an EC50 of 40 to 200 nM.
Consider `CCOC(=O)N1CCc2c([nH]c3ccc(Cl)cc23)C1c1coc2ccccc2c1=O` (stereo not shown) [Compound 499], for which the EC50 was 40 to 200 nM.
Same read-out and setting: for `C=CC(=O)Nc1ccc(C2c3[nH]c4ccc(Cl)cc4c3CCN2C(=O)Oc2ccc(Cl)cc2)cc1` (stereo not shown) [Compound 500] the value was 40 to 200 nM; for `COc1ccc(OC(=O)N2CCc3c([nH]c4ccc(Cl)cc34)C2c2ccc(OCCCN(C)C)cc2)cc1` (stereo not shown) [Compound 501], 40 to 200 nM.
On the same count and under the same terms, for `Cc1ccc(OC(=O)N2CCc3c([nH]c4ccc(Cl)cc34)C2c2ccc(OCCCN(C)C)cc2)cc1` (stereo not shown) [Compound 502] the value was 40 to 200 nM; for `CNc1ncc(C2c3[nH]c4ccc(Br)cc4c3CCN2C(=O)Oc2ccc(OC)cc2)cn1` (stereo not shown) [Compound 503], 40 to 200 nM; for `CCOC(=O)N1CCc2c([nH]c3ccc(Cl)cc23)C1C1CC=CCC1` (stereo not shown) [Compound 504], 40 to 200 nM.
Same read-out and setting: as for `CCOC(=O)N1CCc2c([nH]c3ccc(Br)cc23)C1c1ccc(C(N)=O)cc1` (stereo not shown) [Compound 505], the figure is 40 to 200 nM; as for `CCOC(=O)N1CCc2c([nH]c3ccc(Cl)cc23)C1c1cnc(NC)nc1` (stereo not shown) [Compound 506], 40 to 200 nM.
Take `CCOC(=O)N1CCc2c([nH]c3ccc(Cl)cc23)C1CC(C)c1ccccc1` (stereo not shown) [Compound 508]: the EC50 was in the range of 40 to 200 nM.
Consider `CCOC(=O)N1CCc2c([nH]c3ccc(Cl)cc23)C1c1ccc(C(=O)NCCN2CCOCC2)cc1` (stereo not shown) [Compound 509], for which the EC50 fell in the range of 40 to 200 nM.
Same read-out and setting: for `CCCC1c2[nH]c3ccc(Cl)cc3c2CCN1C(=O)OCC` (stereo not shown) [Compound 510] the value was 40 to 200 nM; for `CCOC(=O)N1CCc2c([nH]c3ccc(Cl)cc23)C1CCc1ccccc1` (stereo not shown) [Compound 511], 40 to 200 nM.
In the case of `CCOC(=O)N1CCc2c([nH]c3ccc(Cl)cc23)C1c1ccc(C(=O)NCCCN2CCCC2=O)cc1` (stereo not shown) [Compound 512], the EC50 lay in the range of 40 to 200 nM.
Same read-out and setting: for `CCOC(=O)N1CCc2c([nH]c3ccc(Cl)cc23)C1c1ccsc1` (stereo not shown) [Compound 513] the value was 40 to 200 nM.
The same measure, in the same setting: for `CCOC(=O)N1CCc2c([nH]c3ccc(Cl)cc23)C1c1ccc(C(=O)N2CCCN(C)CC2)cc1` (stereo not shown) [Compound 514] the value was 40 to 200 nM; for `CCCCCCC1c2[nH]c3ccc(Cl)cc3c2CCN1C(=O)OCC` (stereo not shown) [Compound 515], 200 to 1000 nM.
Same read-out and setting: as for `CCOC(=O)N1CCc2c([nH]c3ccc(Br)cc23)C1c1ccc(C(=O)N(C)CCN(C)C)cc1` (stereo not shown) [Compound 516], the figure is 200 to 1000 nM; as for `CNc1ncc(C2c3[nH]c4ccc(Cl)cc4c3CCN2C(=O)Oc2ccc(OC)cc2)cn1` (stereo not shown) [Compound 517], 200 to 1000 nM; as for `CCOC(=O)N1CCc2c([nH]c3ccc(Cl)cc23)C1c1ccc(C(=O)N(C)CCc2ccccn2)cc1` (stereo not shown) [Compound 518], 200 to 1000 nM.
As for `O=C(O)c1ccc(C2c3[nH]c4ccc(Br)cc4c3CCN2C(=O)Oc2ccc(Cl)cc2)cc1` (stereo not shown) [Compound 519], the concentration giving a half-maximal response (EC50) was 200 to 1000 nM.

As usually defined, the EC50 is the concentration that produces a half-maximal response. Read a high EC50 as lower potency in that assay.
